# Source: US10712339B2, “Engineering of a novel breast tumor microenvironment on a microfluidic chip” (Arizona Board of Regents on behalf of Arizona State …, priority 2014, dated 2020)
# System: Endothelial cells (HUVECs)
# Text: To study vasculogenesis and to optimize the ECM composition for endothelial cell sprouting, we first developed a microfluidic model comprised of a single culture region surrounded by the media region. This device was selected to study endothelial growth without the interference of other cell types or the stroma. Since the media channel is in a different compartment from the cell culture region, it facilitated the development of a gradient of biomolecules. To encapsulate endothelial cells fibrin was chosen, as it is known to play a major role in regulating angiogenesis in 3D ECM. Endothelial cells (HUVECs) at a cell density of 20 million cells/ml were injected into the devices and growth and maturation of vascular networks were monitored over a culture period of 5 days. We introduced vascular endothelial growth factor (VEGF) in to the culture media and assessed the subsequent effects on vasculogenesis. VEGF is known as a major growth factor secreted during cancer progression which leads to formation of new blood vessels. […] We primarily compared the diameter and branching of vascular networks and further assessed the permeability of microvessels within each experimental condition.
substance,measurement,setting,value
VEGF,permeability of microvessels,VEGF in culture media vs No VEGF control,higher permeability
same,structure of endothelial networks,"VEGF in culture media vs No VEGF control, 5 day culture",impaired structurally
same,diameter of the formed vascular networks,"addition of VEGF, endothelial mono-culture in single layer platform",reduced
same,endothelial cell morphology and intercellular connections,"low and high VEGF conditions vs No VEGF control, from day 1",elongated morphology with intercellular connections
